Measured values taken from ChEMBL document CHEMBL1201862, “PubChem BioAssay data set” (2004).
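Following 48 hours of exposure in 96-well plates, responses at five concentrations were used to interpolate endpoints linearly. At the GI50, growth is halved.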 Calls of active or inactive are those of the source. Cut-off read from the data, not from the text of the source: active = GI50 up to about 1.1 µM and inactive = higher.

Experiments:
Assay in all cases: NCI anticancer screen, dose series, 48 h
SF-539 = system: SF-539
SNB-75 = system: SNB-75
HOP-18 = system: HOP-18
HOP-92 = system: HOP-92
786-0 = system: 786-0
LXFL 529 = system: LXFL 529
OVCAR-4 = system: OVCAR-4
UACC-62 = system: UACC-62
SR = system: SR
SNB-78 = system: SNB-78
M14 = system: M14
HL-60 = system: HL-60
M19-MEL = system: M19-MEL
Hs-578T = system: Hs-578T
MCF7 = system: MCF7
MDA-MB-231 = system: MDA-MB-231
T47D = system: T47D
DU-145 = system: DU-145
BT-549 = system: BT-549
MDA-N = system: MDA-N

With CCC(C)COC(=O)c1ccc(/N=C\c2ccc(/C=N/c3ccc(C(=O)OCC(C)CC)cc3)cc2)cc1 (configuration not stated) the GI50 (SF-539) was > 100 µM (inactive), the GI50 (SNB-75) was > 100 µM (inactive) and the GI50 (HOP-18) was > 100 µM (inactive). The GI50 (HOP-92) was > 100 µM (inactive), the GI50 (786-0) was > 100 µM (inactive) and the GI50 (LXFL 529) was > 100 µM (inactive). For the same compound, the GI50 (OVCAR-4) was > 100 µM (inactive), the GI50 (UACC-62) was > 100 µM (inactive) and the GI50 (SR) was > 100 µM (inactive). For the same compound, the GI50 (SNB-78) was > 100 µM (inactive), the GI50 (M14) was > 100 µM (inactive) and the GI50 (HL-60) was > 100 µM (inactive).

For O=C(O)CCSC(=S)Nc1cccc(F)c1, the GI50 (SF-539) was 26.1 µM (inactive), the GI50 (SNB-75) was 82 µM (inactive) and the GI50 (HOP-18) was > 100 µM (inactive). The GI50 (HOP-92) was 25 µM (inactive), the GI50 (786-0) was > 100 µM (inactive) and the GI50 (LXFL 529) was 62.2 µM (inactive). The GI50 (OVCAR-4) was 92.3 µM (inactive), the GI50 (M19-MEL) was 28.2 µM (inactive) and the GI50 (UACC-62) was 13.4 µM (inactive). For the same compound, the GI50 (SR) was 39.2 µM (inactive), the GI50 (SNB-78) was 97.1 µM (inactive) and the GI50 (M14) was 37.1 µM (inactive).

With CCOC(C)OC1CC(n2cc(C)c(=O)[nH]c2=O)OC1CO (configuration not stated) the GI50 (SF-539) was > 100 µM (inactive), the GI50 (HOP-18) was > 100 µM (inactive) and the GI50 (HOP-92) was > 100 µM (inactive). For the same compound, the GI50 (LXFL 529) was > 100 µM (inactive), the GI50 (OVCAR-4) was > 100 µM (inactive) and the GI50 (M19-MEL) was > 100 µM (inactive). The GI50 (SR) was > 100 µM (inactive), the GI50 (SNB-78) was > 100 µM (inactive) and the GI50 (M14) was > 100 µM (inactive). The GI50 (HL-60) was > 100 µM (inactive).

In the case of c1ccc2c(NCCCCCCCCNc3c4ccccc4nc4ccccc34)c3ccccc3nc2c1, the GI50 (SF-539) was 0.233 µM (active), the GI50 (Hs-578T) was 0.478 µM (active) and the GI50 (SNB-75) was 1.19 µM (inactive). The GI50 (HOP-18) was 1.76 µM (inactive), the GI50 (HOP-92) was 1.48 µM (inactive) and the GI50 (786-0) was 0.106 µM (active). For the same compound, the GI50 (MCF7) was 0.0578 µM (active), the GI50 (LXFL 529) was 0.213 µM (active) and the GI50 (MDA-MB-231) was 0.0482 µM (active). For the same compound, the GI50 (OVCAR-4) was 0.887 µM (active), the GI50 (M19-MEL) was 1.08 µM (active) and the GI50 (T47D) was 0.59 µM (active). The GI50 (UACC-62) was 0.684 µM (active), the GI50 (SR) was 0.024 µM (active) and the GI50 (DU-145) was 0.0838 µM (active). For the same compound, the GI50 (SNB-78) was 1.01 µM (active), the GI50 (M14) was 0.975 µM (active) and the GI50 (BT-549) was 1.16 µM (inactive). The GI50 (HL-60) was 0.125 µM (active).

For C/N=C1\S/C(=N\c2ccc(N(C)C)cc2)N1C, the GI50 (SF-539) was 32.1 µM (inactive), the GI50 (SNB-75) was 19 µM (inactive) and the GI50 (HOP-18) was 35 µM (inactive). The GI50 (HOP-92) was 21.8 µM (inactive), the GI50 (786-0) was 42.8 µM (inactive) and the GI50 (LXFL 529) was 40.5 µM (inactive). The GI50 (OVCAR-4) was 44.1 µM (inactive), the GI50 (M19-MEL) was 38 µM (inactive) and the GI50 (UACC-62) was 33.5 µM (inactive). For the same compound, the GI50 (SR) was 46.1 µM (inactive), the GI50 (SNB-78) was 22.9 µM (inactive) and the GI50 (M14) was 33.1 µM (inactive). The GI50 (HL-60) was 34.4 µM (inactive).

With CCN(CC)CCOC(=O)c1ccc(N)cc1.CCOC(=O)Nc1ccc(S(=O)(=O)OC)cc1.CCOC(=O)Nc1ccc(S(=O)(=O)OC)cc1.Nc1ccc(C(=O)O)c(O)c1 the GI50 (SF-539) was > 100 µM (inactive), the GI50 (SNB-75) was 40.2 µM (inactive) and the GI50 (HOP-18) was > 100 µM (inactive). For the same compound, the GI50 (HOP-92) was > 100 µM (inactive), the GI50 (786-0) was > 100 µM (inactive) and the GI50 (LXFL 529) was > 100 µM (inactive). The GI50 (OVCAR-4) was > 100 µM (inactive), the GI50 (M19-MEL) was > 100 µM (inactive) and the GI50 (UACC-62) was > 100 µM (inactive). For the same compound, the GI50 (SNB-78) was > 100 µM (inactive), the GI50 (M14) was > 100 µM (inactive) and the GI50 (HL-60) was > 100 µM (inactive).

In the case of CCOC(=O)CCc1c(C)c2c(OC(C)=O)cc(OC(C)=O)cc2oc1=O, the GI50 (SF-539) was 70 µM (inactive), the GI50 (SNB-75) was 21.7 µM (inactive) and the GI50 (HOP-18) was > 100 µM (inactive). For the same compound, the GI50 (HOP-92) was 6.9 µM (inactive), the GI50 (786-0) was 78.7 µM (inactive) and the GI50 (LXFL 529) was 37.4 µM (inactive). The GI50 (OVCAR-4) was 42 µM (inactive), the GI50 (M19-MEL) was 61.9 µM (inactive) and the GI50 (SNB-78) was 47.6 µM (inactive). The GI50 (M14) was 43 µM (inactive) and the GI50 (HL-60) was 40.2 µM (inactive).

With CC(=O)OCC1OC(N2C(=O)/C(=N\NC(N)=S)c3ccc([N+](=O)[O-])cc32)C(OC(C)=O)C1OC(C)=O (configuration not stated) the GI50 (SF-539) was 24.1 µM (inactive), the GI50 (SNB-75) was 18.6 µM (inactive) and the GI50 (HOP-18) was > 100 µM (inactive). The GI50 (HOP-92) was 43.4 µM (inactive), the GI50 (786-0) was 19.8 µM (inactive) and the GI50 (LXFL 529) was 50 µM (inactive). The GI50 (OVCAR-4) was 19 µM (inactive), the GI50 (M19-MEL) was 18.4 µM (inactive) and the GI50 (UACC-62) was 13.9 µM (inactive). The GI50 (SR) was 5.98 µM (inactive), the GI50 (SNB-78) was 33.3 µM (inactive) and the GI50 (M14) was 70.5 µM (inactive). The GI50 (HL-60) was 16.6 µM (inactive).

Cc1ccccc1OCC(COC(=O)Nc1ccccc1)OC(=O)Nc1ccccc1 (configuration not stated) was tested, and the GI50 (SF-539) was 4.15 µM (inactive), the GI50 (SNB-75) was 7.1 µM (inactive) and the GI50 (HOP-18) was 34.4 µM (inactive). The GI50 (HOP-92) was 10.9 µM (inactive), the GI50 (LXFL 529) was 45.9 µM (inactive) and the GI50 (OVCAR-4) was 13.1 µM (inactive). For the same compound, the GI50 (M19-MEL) was 31.1 µM (inactive), the GI50 (UACC-62) was 23.3 µM (inactive) and the GI50 (SR) was 12.1 µM (inactive). The GI50 (SNB-78) was 22.2 µM (inactive), the GI50 (M14) was 28.1 µM (inactive) and the GI50 (HL-60) was 4.28 µM (inactive).

CC1=C[C@]2(CC(C)C3C(CC4(C)C5CCC6C(C)(C)C(=O)CC[C@@]67C[C@@]57CC[C@]34C)O2)OC1=O (some centres not stated) was tested, and the GI50 (SF-539) was 13.8 µM (inactive), the GI50 (SNB-75) was 16.8 µM (inactive) and the GI50 (HOP-18) was 6.43 µM (inactive). The GI50 (HOP-92) was 18.1 µM (inactive), the GI50 (LXFL 529) was 7.52 µM (inactive) and the GI50 (OVCAR-4) was 19 µM (inactive). For the same compound, the GI50 (SR) was 3.82 µM (inactive), the GI50 (SNB-78) was 23.2 µM (inactive) and the GI50 (M14) was 47.3 µM (inactive). For the same compound, the GI50 (HL-60) was 0.968 µM (active).

CC(/C=N/N=C(N)N)=N\N=C(N)N was tested, and the GI50 (SF-539) was 8.04 µM (inactive), the GI50 (Hs-578T) was 33.2 µM (inactive) and the GI50 (SNB-75) was 25.2 µM (inactive). For the same compound, the GI50 (HOP-18) was 246 µM (inactive), the GI50 (HOP-92) was 3.43 µM (inactive) and the GI50 (MDA-N) was 15.2 µM (inactive). For the same compound, the GI50 (MCF7) was 27.4 µM (inactive), the GI50 (LXFL 529) was 61.9 µM (inactive) and the GI50 (MDA-MB-231) was 22.6 µM (inactive). The GI50 (OVCAR-4) was 3.4 µM (inactive), the GI50 (T47D) was 1.91 µM (inactive) and the GI50 (UACC-62) was 46.6 µM (inactive). The GI50 (SR) was > 57.3 µM (inactive), the GI50 (DU-145) was 46.6 µM (inactive) and the GI50 (SNB-78) was 13.6 µM (inactive). For the same compound, the GI50 (M14) was 43.6 µM (inactive), the GI50 (BT-549) was 243 µM (inactive) and the GI50 (HL-60) was 7.24 µM (inactive).
